Consider two compounds from patent publication US20250255977A1, “EPSILON-POLY-L-LYSINE-BASED DRUG CONJUGATE, INTERMEDIATE THEREOF, AND APPLICATION THEREOF” (SHANGHAI BEST-LINK BIOSCIENCE, LLC, priority 2021, published 2025).

Where two headings read alike, the source gives them in different places.

For data set [1] the following is noted: BALB/C nude, mouse, in vivo, iv, 10 mg/kg. The protocol:
Mice were killed at set time points. Plasma was taken after blood centrifugation. Tumor tissues were isolated, temporarily stored in dry ice and then transferred to −80° C. freezer for later use.
Tumor tissues were thawed, weighed and then added a certain amount of 50/50 methanol and water. The mixture was homogenized on the handheld homogenizer with ice bath, centrifuged at 4° C. 6000×g for 10 min, and the supernatant was collected.
30 μL of plasma or homogenized tumor supernatant were taken and added 200 μL of acetonitrile with internal standard (tolbutamide, 50 ng/mL). The mixture was vortexed for 5 min and centrifuged at 6000×g for 10 min. 75 μL of the supernatant was transferred to a 96-well plate pre-added with 75 μL of water and shaked at 500 rpm for 5 min. 2 μL of sample was injected for LC MS/MS analysis.
Column: ACQUITY UPLC BEH C18 (2.1×50 mm, 1.7 μm)
Phase A: 0.1% formic acid/water, Phase B: 0.1% formic acid/acetonitrile

The next data set deals with HepG2 tumors. Kind of data set: In vivo efficacy in HepG2 xenograft CDX mouse model. The conditions noted are these: Day 33. Set-up: species or system BALB/C nude mice. The protocol:
Biological Assessment Example F: […] The tumor volume was calculated as: […] The evaluation criteria are as follows: […]

The test system of data set [2] is H69 small cell lung cancer. Put plainly: Efficacy on subcutaneous transplanted 1200 mm^3 H69 small cell lung cancer model. The conditions noted are these: topotecan MTD 2 mg/kg (free base) once a day for five days; 1200 mm^3 tumors. The data set is classed as in vivo, BALB/C nude mice. An excerpt:
Biological Assessment Example I: Comparison of Efficacy of 101B00G and Topotecan on Subcutaneous Transplanted 1200 mm^3 H69 Small Cell Lung Cancer Model

For the compound `CCc1c2c(nc3ccc(OC(=O)N4CCC(N5CCCCC5)CC4)cc13)-c1cc3c(c(=O)n1C2)COC(=O)[C@]3(O)CC` [irinotecan], the “Plasma concentration of released drug, average value” amounted to 865 in data set [1] (0.083 h); 385 in data set [1] (0.5 h); 407 in data set [1] (1 h); 172.6 in data set [1] (3 h); 27.7 in data set [1] (8 h). For the same compound, the “TGI (%) / tumor inhibition rate” value in the data set on HepG2 tumors is −49%.

For the compound `CC[C@@]1(O)C(=O)OCc2c1cc1n(c2=O)Cc2cc3c(CN(C)C)c(O)ccc3nc2-1` [topotecan], in data set [2], the “Increase of tumor volume on Day 22 compared with the initial value” came to 22%.
